The source of these data is patent US5985885A, “Quinazoline-4-amino-2-(piperidine-1-yl-4-substituted) derivatives having antihypertensive activity, a method for their preparation and their pharmaceutical use” (priority 1996, dated 1999).

Usually IC50 stands for the concentration that gives 50% inhibition. As usually defined, the AUC is concentration integrated over time. As a reminder, the half-life is the time needed for the level to fall by half in the phase considered.

The target in series [1] is T1, alpha1A adrenergic receptor (rat GSM) (Rattus norvegicus, UniProt P43140).
T1 sequence (P43140 1-466): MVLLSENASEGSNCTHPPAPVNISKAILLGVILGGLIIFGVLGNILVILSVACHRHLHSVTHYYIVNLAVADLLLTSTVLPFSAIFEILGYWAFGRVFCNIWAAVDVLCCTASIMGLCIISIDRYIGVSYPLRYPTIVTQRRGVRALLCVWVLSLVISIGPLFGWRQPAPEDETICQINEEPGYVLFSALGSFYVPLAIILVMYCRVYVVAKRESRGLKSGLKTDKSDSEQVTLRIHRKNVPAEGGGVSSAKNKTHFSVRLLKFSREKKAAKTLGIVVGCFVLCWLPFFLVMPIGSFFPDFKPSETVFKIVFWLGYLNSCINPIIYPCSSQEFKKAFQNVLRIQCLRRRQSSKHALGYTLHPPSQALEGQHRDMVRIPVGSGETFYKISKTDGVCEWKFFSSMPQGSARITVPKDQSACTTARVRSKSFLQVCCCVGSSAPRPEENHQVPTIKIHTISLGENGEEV
Kind of series: [3H]-prazosin binding in rat submaxillary glands (GSM). The note with it: alpha1A subtype, pH 7.4, 45 min, 25° C., read-out: Inhibition of the binding of [3H]-prazosin IC50.

Series [2] concerns the target alpha1A + alpha1C adrenergic receptor (human prostate). Kind of series: [3H]-prazosin binding in human prostate. The note with it: alpha1A + alpha1C subtype, pH 7.5, 30 min, 25° C., read-out: Inhibition of the binding of [3H]-prazosin IC50.
The target in series [3] is T2, 5-HT2 receptors (isolated rabbit aorta) (Oryctolagus cuniculus, UniProt G1SYA7).
T2 construct: Four rings formed from rabbit aorta were joined together to form a chain; from tissue; host or cells: isolated rabbit aorta rings
T2 sequence (G1SYA7 1-469): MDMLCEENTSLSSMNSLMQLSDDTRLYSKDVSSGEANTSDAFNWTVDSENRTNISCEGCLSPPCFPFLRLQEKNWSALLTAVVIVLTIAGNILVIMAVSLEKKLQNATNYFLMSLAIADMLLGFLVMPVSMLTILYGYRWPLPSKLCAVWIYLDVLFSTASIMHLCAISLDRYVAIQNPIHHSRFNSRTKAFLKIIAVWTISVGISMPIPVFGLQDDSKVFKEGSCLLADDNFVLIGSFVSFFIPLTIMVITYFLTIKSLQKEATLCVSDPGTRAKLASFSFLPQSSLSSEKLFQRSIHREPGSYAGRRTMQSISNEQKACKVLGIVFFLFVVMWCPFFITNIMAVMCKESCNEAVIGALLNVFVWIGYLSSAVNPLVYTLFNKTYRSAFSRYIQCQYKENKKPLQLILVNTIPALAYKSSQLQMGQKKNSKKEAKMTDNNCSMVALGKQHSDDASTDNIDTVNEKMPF
Kind of series: Antagonism of serotonin-induced contraction of isolated rabbit aorta. The note with it: for IC50: isolated rabbit aorta, 37° C., compound 10 min before agonist, limits (p < 0.05). On the procedure:
The antagonist activity of some of the compounds of the invention on the contractile activity of seratonin on isolated rabbit aorta, effected principally by way of the 5-HT2 receptors, is reported here by way of example. The method of Feniuk et al [Br. J. Pharmacol. (1985), 86, 697-704] was used, with slight modifications. Four rings formed from rabbit aorta were joined together to form a chain; the preparation was placed in an isolated organ bath in the presence of Krebs at 37° C. and attached to an isometric transducer, a tension of 2 g being applied and oxygenation was carried out continuously with O2 --CO2 (95-5 v/v). A seratonin concentration(0.3 μM) was used that was capable of causing sub-maximal contraction of the preparation. […] The results obtained in this way are given in Table 4 below which, for several of the compounds of the invention gives IC50 values calculated by the regression method on a set of at least 2 experiments at 5 different concentrations for each of the compounds examined, these being compared with values obtained for several reference compounds.

For series [4], the system named is anaesthetised normotensive rat. Briefly: Hypotensive activity in the anaesthetised normotensive rat (IV). The series is classed as in vivo. The note with it: for ED30: Rattus norvegicus, read-out: Reduction in mean arterial pressure ED30. On the procedure: In order to evaluate the in vivo activity, some of the compounds of the invention were administered (IV) in bolus form to the normotensive rat anaesthetised with urethane plus ketamine. The compounds were administered in at least three doses in experiments performed in duplicate so as to enable the calculation of ED30 values, that is, the dose in mg/kg that reduces the mean basal arterial pressure by 30%. The compounds of the invention, and several reference standards, were dissolved in dilute hydrochloric acid at a physiologically acceptable pH, and physiological solution was administered in a volume of 3 ml/kg. Evaluations were made at two time periods, that is, the intervals 0-30 min and 30-60 min after administration.

Series [5] deals with spontaneously hypertensive (SHR) rat. Briefly: Anti-hypertensive activity in the spontaneously hypertensive (SHR) rat (oral). Type of series: in vivo. From the text:
Animals having a mean basal systolic pressure of not less than 180 mmHg were used.

The nature of series [6]: in vivo. The note with it: rat.
The target in series [7] is T3, alpha1B adrenergic receptor (rat liver) (Rattus norvegicus, UniProt P15823).
T3 sequence (P15823 1-515): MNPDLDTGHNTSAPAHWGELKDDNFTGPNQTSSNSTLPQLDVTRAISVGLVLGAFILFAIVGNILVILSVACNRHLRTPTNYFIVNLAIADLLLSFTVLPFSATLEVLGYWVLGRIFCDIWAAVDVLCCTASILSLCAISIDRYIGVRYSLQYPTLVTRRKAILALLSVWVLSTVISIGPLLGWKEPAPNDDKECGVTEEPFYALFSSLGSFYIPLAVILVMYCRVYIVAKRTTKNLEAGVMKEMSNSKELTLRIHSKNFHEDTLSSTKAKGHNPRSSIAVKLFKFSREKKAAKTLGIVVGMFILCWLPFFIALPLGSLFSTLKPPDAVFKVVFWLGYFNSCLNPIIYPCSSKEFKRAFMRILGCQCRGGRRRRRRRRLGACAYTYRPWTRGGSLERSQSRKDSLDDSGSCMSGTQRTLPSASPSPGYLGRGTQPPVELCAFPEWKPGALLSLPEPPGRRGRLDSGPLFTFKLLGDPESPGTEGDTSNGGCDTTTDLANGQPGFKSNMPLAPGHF
Kind of series: [3H]-prazosin binding in rat liver.

The subject of series [8] is alpha1A, alpha1B and alpha1C adrenergic receptor subtypes. Briefly: [3H]-prazosin binding, alpha1 subtypes together (Table 3 overall). The note with it: reference compounds versus compounds of the invention/prazosin.

Molecules are shown by their SMILES. Structures can show the parent of a compound that is named as a salt. Where two headings read alike, the source gives them in different places.

`COc1cc2nc(N3CCC(c4ccccn4)CC3)nc(N)c2cc1OC` [Compound 7, 1-(4-amino-6,7-dimethoxy-2-quinazolinyl)-4-(2-pyridyl)piperidine(hydrochloride)]: the IC50 in series [1] is 3.1 nM. Besides, in series [2], the IC50 amounted to 5 nM. For the same molecule, in series [3], the IC50 is 54700 nM. In addition, in series [4] (0.5 h, IV bolus, interval 0-30 min), the ED30 turned out to be 0.08 mg/kg. In addition, the ED30 in series [4] (1 h, IV bolus, interval 30-60 min) turned out to be 0.09 mg/kg. In addition, in series [5], the “anti-hypertensive action (in words)” value was “about as powerful as prazosin”; the “Cardiac frequency, max effect at 3 mg/kg” value is reported as “+0.9 % vs basal”; the “Systolic pressure, max effect at 3 mg/kg” value was -22.7 % vs basal. Moreover, the ED20 in series [5] (Rattus norvegicus, 2 h, 0-120 min, NC: not calculable, read-out: Systolic pressure ED20 (0-120 min)) is 2.2 mg/kg. In series [6] (plasma, po, 15 mg/kg OS vs 1 mg/kg IV, read-out: relative bioavailability (AUC OS/AUC IV, dose corrected)), the bioavailability was ~80%. Also, in series [6] (plasma, po, OS 15 mg/kg), the AUC turned out to be 3620 ng·h/mL, the concentration at 0.25 h worked out at 230 ng/mL, the concentration at 0.5 h turned out to be 360 ng/mL and the concentration at 1 h came to 480 ng/mL. This molecule also returned a concentration at 2 h in series [6] (plasma, po, OS 15 mg/kg) of 390 ng/mL. Also, the concentration at 3 h in series [6] (plasma, po, OS 15 mg/kg, 3 h) is 340 ng/mL. Also, the concentration at 4 h in series [6] (plasma, po, OS 15 mg/kg, 4 h) stood at 320 ng/mL. The molecule also had a concentration at 6 h in series [6] (plasma, po, OS 15 mg/kg, 6 h) of 280 ng/mL. The concentration at 8 h in series [6] (plasma, po, OS 15 mg/kg, 8 h) stood at 180 ng/mL. The concentration at 12 h in series [6] (plasma, po, OS 15 mg/kg, 12 h) is 80 ng/mL. Moreover, in series [6] (plasma, IV 1 mg/kg), the AUC is 300 ng·h/mL, the concentration at 0.25 h stood at 300 ng/mL, the concentration at 0.5 h was found to be 180 ng/mL and the concentration at 1 h amounted to 100 ng/mL. In series [6] (plasma, IV 1 mg/kg), this molecule had a concentration at 2 h of 40 ng/mL. The molecule further displayed a concentration at 0.083 h in series [6] (plasma, IV 1 mg/kg, 0.083 h) of 420 ng/mL. In addition, the Plasma concentration in series [6] (IV 1 mg/kg, 6 h) came to 0 ng/mL. Moreover, in series [6] (plasma, iv, 1 mg/kg), the concentration at 3 h was 20 ng/mL and the concentration at 4 h came to 10 ng/mL. For the same molecule, the concentration at 24 h in series [6] (plasma, po, 15 mg/kg) stood at 20 ng/mL. For the same molecule, the half-life in series [6] (plasma, read-out: half-life, terminal elimination phase (converted)) was ~6 h. Moreover, the IC50 in series [7] worked out at 8.2 nM.
With `O=C(c1ccc(F)cc1)C1CCN(CCn2c(=O)[nH]c3ccccc3c2=O)CC1` [Ketanserine, reference compound], the IC50 in series [1] is 48.2 nM; in series [2], 270 nM; in series [3] it was 228 nM; in series [7], 29.9 nM. In series [8], the “times less powerful (on average)” value is 10 to 30 times.
For the molecule `COc1cccc(OC)c1OCCNCC1COc2ccccc2O1` (stereo not drawn) [WB-4101, reference compound], the values for the IC50 in series [1] and in series [3] were 16.5 nM and > 145000 nM, respectively. Besides, in series [3] (rabbit aorta), the “5-HT2-antagonist activity (in words)” value was “inactive until higher doses (50 μg/ml)”. Also, the “hypotensive activity compared with prazosin/compounds (in words)” value in series [4] (IV bolus) is “less active”. Besides, the ED30 in series [4] (iv, 0.5 h) worked out at 0.13 mg/kg; in series [4] (iv, 1 h), 0.29 mg/kg. Further, the “anti-hypertensive action (in words)” value in series [5] is “inactive”. Further, the “Systolic pressure ED20 (0-120 min)” value in series [5] (0-120 min, NC: not calculable) is given as “INACTIVE”. Besides, in series [5], the “Cardiac frequency, max effect at 3 mg/kg” value was -5.7 % vs basal. In series [5], the “Systolic pressure, max effect at 3 mg/kg” value was -2.6 % vs basal. For the same molecule, the “times less powerful (on average)” value in series [8] was in the range of 10 to 30 times.
